From ChEMBL document CHEMBL4402608 (J Med Chem, 2020) come the findings set out here.

In general, inhibition refers to the drop in the measured response relative to a control, in per cent. As a reminder, the Ki is a dissociation constant, usually derived from enzyme kinetics or from competition with a known ligand.

Molecules are shown by their SMILES.

The target of data set [1] is T1, Alpha-1A adrenergic receptor (Homo sapiens, UniProt P35348).
T1 sequence (P35348 whole entry): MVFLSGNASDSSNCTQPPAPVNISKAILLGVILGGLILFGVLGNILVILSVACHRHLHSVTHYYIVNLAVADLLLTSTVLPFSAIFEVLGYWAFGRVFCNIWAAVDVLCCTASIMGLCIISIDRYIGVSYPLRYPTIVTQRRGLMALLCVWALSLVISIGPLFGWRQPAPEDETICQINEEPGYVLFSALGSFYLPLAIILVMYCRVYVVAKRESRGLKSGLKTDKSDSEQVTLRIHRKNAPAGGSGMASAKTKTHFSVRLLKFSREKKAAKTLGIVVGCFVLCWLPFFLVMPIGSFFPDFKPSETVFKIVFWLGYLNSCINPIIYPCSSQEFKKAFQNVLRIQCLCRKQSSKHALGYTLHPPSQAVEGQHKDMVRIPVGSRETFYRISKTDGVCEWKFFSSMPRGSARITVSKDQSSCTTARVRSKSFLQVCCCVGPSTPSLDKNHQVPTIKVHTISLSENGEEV
Description: Displacement of [3H]-prazosin from recombinant human alpha1A adrenergic receptor at 10 uM measured after 90 mins by microbeta scintillation counting method relative to control. To be noted: probe [3H]-prazosin. For orientation: Loss of bound radioactivity is the signal in a displacement assay; it reports binding, not function.

Another data set deals with dopamine D4 receptor (Homo sapiens, UniProt P21917). Description: Displacement of [3H]-N-methylspiperone from recombinant human D4 receptor stably expressed in HEK cell membranes at 10 uM measured after 90 mins by microbeta scintillation counting method relative to control. To be noted: probe [3H]-N-methylspiperone.
For data set [2], the target named is Sodium-dependent noradrenaline transporter (Homo sapiens, UniProt P23975). Kind of data set: Displacement of [3H]-Nisoxetine from human NET receptor expressed in stable HEK cell membranes after 90 mins by microbeta scintillation counting method.
The target of a further data set is Histamine H2 receptor (Homo sapiens, UniProt P25021). Description: Displacement of [125I]-Iodo-aminopotentidine from human histamine H2 receptor expressed in stable HEK cell membranes after 90 mins by microbeta scintillation counting method.
Data set [3] is described as follows: Displacement of [3H]-PK11195 from rat brain GABA PBR measured after 90 mins by microbeta scintillation counting method.
A further data set addresses muscarinic M4 receptor (Homo sapiens, UniProt P08173). Kind of data set: Displacement of [3H]-QNB/[3H]-NMS from human muscarinic M4 receptor expressed in stable CHO cell membranes at 10 uM after 90 mins by microbeta scintillation counting method relative to control. To be noted: probe [3H]-QNB/[3H]-NMS.
Another data set concerns the target Histamine H1 receptor (Homo sapiens, UniProt P35367). Description: Displacement of [3H]-pyrilamine from human histamine H1 receptor expressed in stable HEK cell membranes at 10 uM after 90 mins by microbeta scintillation counting method relative to control. Conditions: probe [3H]-pyrilamine; call rule not given here.
In a further data set the target is 5HT7A receptor (Homo sapiens, UniProt P34969). Description: Displacement of [3H]-LSD from recombinant human 5HT7A receptor stably expressed in HEK cell membranes at 10 uM measured after 90 mins by microbeta scintillation counting method relative to control. Conditions: probe [3H]-LSD.
Another data set addresses Histamine H4 receptor (Homo sapiens, UniProt Q9H3N8). Kind of data set: Displacement of [3H]-Histamine from recombinant human histamine H4 receptor expressed in HEKT cell membranes at 10 uM measured after 90 mins by microbeta scintillation counting method relative to control. To be noted: probe [3H]-Histamine.
Data set [4] deals with Alpha-2B adrenergic receptor (Homo sapiens, UniProt P18089). Kind of data set: Displacement of [3H]-rauwolscine from recombinant human alpha2B adrenergic receptor transiently expressed in HEKT cell membranes at 10 uM measured after 90 mins by microbeta scintillation counting method relative to control. To be noted: probe [3H]-rauwolscine.
Another data set addresses 5HT1D receptor (Homo sapiens, UniProt P28221). Description: Displacement of [3H]5-CT from recombinant human 5HT1D receptor transiently expressed in HEKT cell membranes at 10 uM measured after 90 mins by microbeta scintillation counting method relative to control. Conditions: probe [3H]5-CT.
In data set [5] the target is dopamine transporter (DAT) (Homo sapiens, UniProt Q01959). Description: Displacement of [3H]-Win35428 from human DAT expressed in stable HEK cell membranes at 10 uM after 90 mins by microbeta scintillation counting method relative to control. Conditions: stable HEK cell membranes expressing human DAT, probe [3H]-Win35428.
The target of a further data set is 5HT1E receptor (Homo sapiens, UniProt P28566). Kind of data set: Displacement of [3H]5-HT from recombinant human 5HT1E receptor stably expressed in HEK cell membranes at 10 uM measured after 90 mins by microbeta scintillation counting method relative to control. To be noted: probe [3H]5-HT.
The target of data set [6] is T2, Alpha-2C adrenergic receptor (Homo sapiens, UniProt P18825).
T2 sequence (P18825 whole entry): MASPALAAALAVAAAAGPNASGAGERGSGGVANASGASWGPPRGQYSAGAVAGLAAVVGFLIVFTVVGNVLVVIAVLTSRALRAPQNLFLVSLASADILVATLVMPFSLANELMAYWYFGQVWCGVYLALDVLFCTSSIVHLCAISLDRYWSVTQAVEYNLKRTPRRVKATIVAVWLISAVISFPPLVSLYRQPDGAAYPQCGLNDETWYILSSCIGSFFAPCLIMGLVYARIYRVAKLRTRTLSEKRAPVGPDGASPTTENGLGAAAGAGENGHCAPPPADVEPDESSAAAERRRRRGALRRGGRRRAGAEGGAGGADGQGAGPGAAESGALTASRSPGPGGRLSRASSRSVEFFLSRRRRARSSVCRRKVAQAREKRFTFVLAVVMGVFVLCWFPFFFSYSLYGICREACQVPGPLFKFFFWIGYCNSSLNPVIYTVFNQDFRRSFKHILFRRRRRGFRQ
Description: Displacement of [3H]-rauwolscine from recombinant human alpha2C adrenergic receptor stably expressed in MDCK cell membranes at 10 uM measured after 90 mins by microbeta scintillation counting method relative to control. Conditions: probe [3H]-rauwolscine.

The subject of the next data set is GABA PBR. Description: Displacement of [3H]-PK11195 from rat brain GABA PBR at 10 uM measured after 90 mins by microbeta scintillation counting method relative to control. To be noted: probe [3H]-PK11195.
For data set [7], the target named is 5-hydroxytryptamine receptor 1E (Homo sapiens, UniProt P28566).
Data set [8] deals with Delta-type opioid receptor (Homo sapiens, UniProt P41143).
The target of data set [9] is 5-hydroxytryptamine receptor 3A (Homo sapiens, UniProt P46098).
In data set [10] the target is T2, Alpha-2C adrenergic receptor.
The target of data set [11] is Beta-2 adrenergic receptor (Homo sapiens, UniProt P07550). Kind of data set: Displacement of [3H]-CGP12177 from recombinant human beta2 adrenergic receptor expressed in HEK Flp-In cell membranes measured after 90 mins by microbeta scintillation counting method.
Data set [12] concerns the target 5-hydroxytryptamine receptor 5A (Homo sapiens, UniProt P47898).
Data set [13] concerns the target 5-hydroxytryptamine receptor 1B (Homo sapiens, UniProt P28222).

As for `CCCN(CC[C@]1(O)C[C@H](NC(=O)c2ccc3ccccc3c2)C1)[C@H]1CCc2nc(N)sc2C1`, the inhibition at […], 10 µM in data set [1] was less than 50%; at dopamine D4 receptor it was more than 50%; on muscarinic M4 receptor, more than 50%; at Histamine H1 receptor it was more than 50%; on 5HT7A receptor, more than 50%; on Histamine H4 receptor, less than 50%. The inhibition at […], 10 µM in data set [4] is less than 50%; on 5HT1D receptor it was less than 50%; in data set [5], more than 50%; at 5HT1E receptor it was less than 50%; in [6] it was less than 50%; with GABA PBR, less than 50%. For the same molecule, the Ki in data set [2] (read-out: Ki) was 0.436 µM; on Histamine H2 receptor, 0.224 µM; in data set [3], “Not Active”.
On to `CCCN[C@H]1CCc2nc(N)sc2C1` [PRAMIPEXOLE], for which the inhibition at […], 10 µM in data set [1] was more than 50%; at dopamine D4 receptor, more than 50%; on muscarinic M4 receptor, less than 50%; on Histamine H1 receptor, less than 50%; at 5HT7A receptor, more than 50%; at Histamine H4 receptor, more than 50%. Besides, the inhibition at […], 10 µM is more than 50% in [4]; more than 50% on 5HT1D receptor; less than 50% in data set [5]; more than 50% at 5HT1E receptor; more than 50% in [6]. For the same molecule, the Ki in [7] is more than 10 µM; in [8], more than 10 µM; in data set [2] it was “Not Active”; at Histamine H2 receptor it was 2.68 µM; in [9], more than 10 µM; in data set [10] it was 0.0522 µM. For the same molecule, the values for the Ki in [11], in [12] and in data set [13] were more than 10 µM, more than 10 µM and 3.51 µM, respectively.
